Test results: PMC5855875, “Teixobactin analogues reveal enduracididine to be non-essential for highly potent antibacterial activity and lipid II binding” (Chemical Science, 2017)
≈ marks a conversion by molar mass, not a printed value. Bridge positions count the residues as written; N and C are the ends. Square brackets hold non-standard residues; d marks the D form. Peptide text beside a SMILES is read from it. d(aIle) = CC[C@H](C)[C@@H](N)C(=O)O; dNMeF = CN[C@H](Cc1ccccc1)C(=O)O

Assays:
[1] = test system: MRSA 2: MRSA DR 42412 (sputum); assay: microbe, parasite or virus in culture
Procedure: (§1) VIII. MIC testing (extended panel)
(§2) Bacterial cultures were grown overnight i n Mueller-Hinton Agar (MHA) plates and adjusted to a final concentration of 10 5 – 106 CFU/ml. 100 µl of inoculum in Meuller -Hinton broth (MHB) was mixed with equal volume of peptides (dissolved in MHB) at 2x their concentration in a 96 well plate. In parallel experiments, MIC values were determined in the media containing polysorbate 80 (0 .002%, v/v) to […]
(§3) prevent non-specific adsorption of the peptides to plastic surfaces. The final peptides concentrations […]
(§4) Positive and negative controls contained 200 µl of inoculum without any peptide dissolved in broth, respectively. The 96 well plates were then incubated at 37 °C for 24 h. […]
(§5) 80. Strain information: MRSA 1: MRSA ATCC 700699, MRSA 2: MRSA DR 42412 (sputum), MRSA
(§6) 3: MRSA DM21455 (eye). […] Staphylococcus aureus ATCC

MRSA ATCC 33591 = assay: microbe, parasite or virus in culture; details: ATCC 33591, 24 h
Procedure: (§7) were grown in Mueller Hinton broth (Oxoid) in triplicate. All incubations were at 37°C. Dilutions were carried out in triplicate. 100 µl of autoclaved Mueller Hinton broth was added to wells 2-12 in a 96-well plate. 200 µl of the peptide was added to well one at a concentration of 256 µg/mL. 100µl of peptide in well one was taken up and pipetted into well two. The mixture was then mixed via pipetting before 100µl was taken up and pipetted into well three. This process was repeated up to well 11. Once […]
(§8) peptide present. Thus, the concentrations (in µg/mL) were: 256, 128, 64, 32, 16, 8, 4, 2, 1, 0.5, 0.25 and no peptide present. Each well was then inoculated with 100µl of bacteria that had been diluted to an […]
(§9) This was repeated three times. The 96-well plates were then incubated at 37°C for 24 hours. The MIC was determined to be the lowest concentration at which there was no growth visible. […]
(§10) was repeated at an altered initial concentration of 64 µg/ml. Therefore, the new concentrations for MIC […]
as §1, §2

[2] = Lipid II TLC binding assay; details: peptide : lipid II 2 : 1; 50 mM Tris/HCl, pH 7.5, 30 min, room temperature; three independent experiments
Procedure: X. Complex formation of teixobactin with lipid II and geranyl pyrophosphate Complex formation of teixobactin analogues 8 (Ala10-teixobactin) and 16 (Arg10-teixobactin) with lipid II and geranyl pyrophosphate was performed using TLC as described previously.7 Binding of teixobactin to lipid II and geranyl pyrophosphate was analysed by incubating 30 µL of 2 nmol of each precursor with 2 or 4 nmoles of teixobactin in 50 mM Tris/HCl, pH 7.5, for 30 min at room temperature. Complex formation was analysed by extracting unbound precursors from the reaction mixture with 30 µL n- butanol/6M pyridine acetate (pH 4.2) (2:1; vol/vol) followed by TLC analysis of the organic layer using chloroform/methanol/water/ammonia (88:48:10:1, v/v/v/v) as the solvent and detection of lipid/phosphate containing precursors by phosphomolybdic acid staining. The TLC figures represent the results obtained through thr ee independent experiments.
Figure S76 : Binding of teixobactin analogues 8 (Ala10-teixobactin ) and 16 (Arg10-teixobactin) with lipid II using the protocols described in literature .7 Partial binding is observed when the ratio of lipid II to the analogue is 1:1 (indicated by lighter spots on the TLC) and complete binding is observed when the ratio of lipid II to the analogue is 1:2 in case of analogue 16 and 1:4 in case of analogue 8 (indicated […]
(§11) (also on this page, place not known: polyso rbate vancomycin , concentr ation 80 . wer e µ l (10 1-105 10 10 previously n - TL C three S76: (Ala10-teixobactin) literature.7 Lipid II Lipid II: Compound 8 = 1:1 Lipid II: Compound 16 = 1:1 Lipid II: Compound 8 = 1:2 Lipid II: Compound 16 = 1:2 Lipid II: Compound 8 = 1:4)

MRSA DM21455 = assay: Time-kill kinetics; format: cell-based, Methicillin-resistant Staphylococcus aureus; details: 0.5 μg mL^–1; MHB containing 0.002% v/v polysorbate 80; 37 °C; average of two independent experiments
Procedure: IX. Time-dependent killing of bacteria by teixobactin analogues 12 and 13 Time-kill kinetics against MRSA DM21455 strains (clinical isolates from patients) was carried out in MHB. Cultures were grown overnight in MHA plates and adjusted to a final inoculum of 10^5 – 10^6 CFU/ml in MHB (containing 0.002% v/v, polysorbate 80) with teixobactin analogues 12 and 13 maintained at a final concentration of 0.5 µg/ml. For vancomycin, the concentration was varied from 0.5 – 16 µg/ml without polysorbate 80. The tubes were then incubated at 37 °C. 100 µl of cell suspension was withdrawn at various time points (0, 2, 4, 8, 24 h), serially diluted (101-105 fold dilutions) and plated onto a MHA plates and incubated for 24 h at 37 °C.
Colonies were then enumerated […]. Colony counting too numerous to count (>300 colonies) was taken as 1010 CFU. Average values from two independent experiments are reported. […]
as §11

M. smegmatis ATCC 607 = assay: microbe, parasite or virus in culture; details: ATCC 607, 72 h
Procedure: as §7, §8, §9, §10
Middlebrook 7H9 broth (SIGMA) supplemented to 5% Middlebrook ADC (SIGMA) growth

VRE 1: VRE ATCC 700802 = assay: organism not typed
Procedure: as §1, §2, §3, §4, §5, §6

VRE 2: VRE ATCC 29212 = assay: organism not typed
Procedure: as §1, §2, §3, §4, §5, §6

[3] = test system: Staphylococcus aureus ATCC 29213; assay: microbe, parasite or virus in culture
Procedure: as §1, §2, §3
(§12) Positive and negative controls contained 200 µl of inoculum without any peptide dissolved in broth, respectively. The 96 well plates were then incubated at 37 °C for 24 h.
(§13) All the experiments were performed in two independent duplicates and the MIC was determined as the […]
(§14) Minimum bactericidal concentration
(§15) The lowest concentration in which no visible colonies could be detected was taken as the MBC.
as §5, §6

[4] = test system: MRSA 3: MRSA DM21455 (eye); assay: microbe, parasite or virus in culture
Procedure: as §1, §2, §3, §12, §13, §14, §15, §5, §6

MRSA 1: MRSA ATCC 700699 = assay: microbe, parasite or virus in culture
Procedure: as §1, §2, §3, §12, §13, §14, §15, §5, §6

## CC[C@H](C)[C@H](NC(=O)[C@@H](Cc1ccccc1)NC)C(=O)N[C@@H](CO)C(=O)N[C@H](CCC(N)=O)C(=O)N[C@@H](C(=O)N[C@H](C(=O)N[C@@H](CO)C(=O)N[C@H]1C(=O)N[C@@H](C)C(=O)N[C@@H](CC(C)C)C(=O)N[C@@H]([C@@H](C)CC)C(=O)O[C@H]1C)[C@@H](C)CC)[C@@H](C)CC [Compound 13, Leu10-teixobactin] (H-[dNMeF]IS[dQ][d(aIle)]IS[dT]ALI; ester 8-C)
[1]; 2: DR 42412 (sputum, 24 h)
  MIC: ≤0.0625 μg mL^–1
  MIC (without polysorbate 80): 2 µg/mL (≈ 1.66 µM)
[1]; MRSA 2, MHB containing polysorbate 80 (0.002%, v/v), 37 °C, 24 h
  MIC (with polysorbate 80): ≤ 0.0625 µg/mL
MRSA ATCC 33591
  MIC: 0.25 μg mL^–1
[2]
  lipid II spot on TLC: complete disappearance of the lipid II spot
MRSA DM21455
  time to complete bactericidal activity: ≤ 8 h
M. smegmatis ATCC 607
  MIC: ~1 μg mL^–1
VRE 1: VRE ATCC 700802; ATCC 700802, 24 h
  MIC: 0.25 μg mL^–1
  MIC (without polysorbate 80): 2 µg/mL (≈ 1.66 µM)
VRE 1: VRE ATCC 700802; VRE 1, MHB containing polysorbate 80 (0.002%, v/v), 37 °C, 24 h
  MIC (with polysorbate 80): 0.25 µg/mL (≈ 0.208 µM)
VRE 2: VRE ATCC 29212; ATCC 29212, 24 h
  MIC: 0.25 μg mL^–1
  MIC (without polysorbate 80): 2 µg/mL (≈ 1.66 µM)
VRE 2: VRE ATCC 29212; VRE 2, MHB containing polysorbate 80 (0.002%, v/v), 37 °C, 24 h
  MIC (with polysorbate 80): 0.25 µg/mL (≈ 0.208 µM)
[3]; ATCC 29213, 24 h
  MIC (without polysorbate 80): 1 µg/mL (≈ 0.832 µM)
[3]; S. aureus ATCC 29213, MHB containing polysorbate 80 (0.002%, v/v), 37 °C, 24 h
  MIC (with polysorbate 80): ≤ 0.0625 µg/mL
[3]; Staphylococcus aureus ATCC 29213, plated on MHA, 37 °C, 24 h
  MBC: 0.125 μg mL^–1
[4]; 3: DM21455 (eye, 24 h)
  MIC: ≤0.0625 μg mL^–1
  MIC (without polysorbate 80): 2 µg/mL (≈ 1.66 µM)
[4]; MRSA 3, MHB containing polysorbate 80 (0.002%, v/v), 37 °C, 24 h
  MIC (with polysorbate 80): ≤ 0.0625 µg/mL
MRSA 1: MRSA ATCC 700699; ATCC 700699, 24 h
  MIC: 0.25 μg mL^–1
  MIC (without polysorbate 80): 2 µg/mL (≈ 1.66 µM)
MRSA 1: MRSA ATCC 700699; MRSA 1 (MRSA ATCC 700699), plated on MHA, 37 °C, 24 h
  MBC: 2 μg mL^–1
MRSA 1: MRSA ATCC 700699; MRSA 1, MHB containing polysorbate 80 (0.002%, v/v), 37 °C, 24 h, two independent duplicates
  MIC (with polysorbate 80): 0.25 µg/mL (≈ 0.208 µM)
